# Data as given in patent publication US11344548B2, “Analogs of 3,5-dihydroxypentanoate for bone formation” (KAOHSIUNG MEDICAL UNIVERSITY, priority 2015, dated 2022).
# Like-named read-outs stand apart in the source and are kept apart here.
# Columns and labels:
# [1] = tested on: human adipose stem cells (hADSC); test: Cytotoxicity MTS assay on human adipose stem cells
# Experimental: Statins are known agents that induced stem cells to be osteogenesis.
# In a 96-well plate, human adipose stem cells (hADSC) were cultured to an initial culture density of 6×10^3 cells per well in K medium (Keratinocyte-SFM, GIBCO-Invitrogen Corporation). […] The MTS agent was added to the culture medium for 3 hours, then the medium was removed and the cells were washed with PBS (phosphate buffered saline), and 100 μL of DMSO (dimethyl sulfoxide) was added to the wells to promote the dissolution of formazan. The DMSO solution containing formazan was measured using UV spectrophotometer at 490 nm wavelength, and the survival of cells was judged by the value of absorbance.
# D1 cells [2] = test: Cytotoxicity MTT assay on D1 cells; format: cell-based, rat; details: for IC50: Rattus norvegicus, 72 h, MTT, 3 days
# Experimental: D1 cell is more sensitive than hADSC cell by drug treatment.
# The cytotoxicity of compounds 4˜11 was analyzed using MTT assay. D1 cells were cultured to an initial culture density of 5×10^3 cells per well in a bone medium. The bone medium was a DMEM medium containing 10% Fetal bovine serum (FBS), 100 U/mL penicillin, 100 μg/mL streptomycin, […] ascorbic acid, 1% non-essential amino acids (NEAA) and 1.5 g sodium bicarbonate. After the cells were seeded, the bone medium with compounds 4˜11 respectively was set as the experimental group, the bone medium without compound was set as the blank test group, and all were cultured at 37° C. for 3 days. The MTT agent was added to the culture medium for 3 hours, then the medium was removed and the cells were washed with PBS, and 100 μL of DMSO was added to the wells to promote the dissolution of formazan. The DMSO solution containing formazan was measured using UV spectrophotometer at 595 nm wavelength, and the survival of cells was judged by the value of absorbance.
# zebrafish [3] = test: Bone formation induced by test compounds in zebrafish (calcein staining); format: in vivo; details: zebrafish larvae, 0.32 μM, calcein stain, FIG. 9(c)
# Experimental: The non-oligopeptide derivative 7 which had the most outstanding overall performance was selected from the above experiments. In the study for increasing the bone mass of zebrafish, when 0.1 or 1 μM of compound 7 were treated, both can promote bone formation in the zebrafish, and the increase range was between 30% and 50% compared with the non-administration group.
# Zebrafish larvae at 2 dpf were treated with test compounds (0.32 μM) for 6 days in a 24-well plate. At 7 dpf, the fish were transferred to 6-cm dishes (8 fish/dish) for bone staining using calcein solution. The calcein solution was prepared at 0.2% by dissolving 2 g of calcein powder (Sigma Chemical, St. Louis, Mo.) in 1 liter of deionized water. The immersion time was 10 minutes at 7 dpf. After the immersion, the embryos were rinsed a number of times in fresh water, and then allowed to stand for 10 mins to allow the excess stain diffusion from the larvae tissue. The embryos were then euthanized in tricaine-methanesulfonate (MS 222) and mounted on depression glass slides with methyl-cellulose (3%). […] Each image was taken at 200 mini-seconds, then the fluorescence of the calcein stain images was calculated using NIH Image J (NIH open software with Macbiophotonics plugins). […]
# zebrafish [4] = details: reported by Fleming; cited from earlier work
# HMG-CoA reductase = target: T1, HMG-CoA reductase (Homo sapiens, UniProt P04035); test: HMG-CoA reductase inhibition; format: biochemical; details: for effective inhibitory concentration compared with simvastatin: HMG-CoA reductase; for IC50: HMG-CoA reductase 17.4 nM final, absorbance 340 nm
# T1 sequence (P04035 426-888 limits assumed): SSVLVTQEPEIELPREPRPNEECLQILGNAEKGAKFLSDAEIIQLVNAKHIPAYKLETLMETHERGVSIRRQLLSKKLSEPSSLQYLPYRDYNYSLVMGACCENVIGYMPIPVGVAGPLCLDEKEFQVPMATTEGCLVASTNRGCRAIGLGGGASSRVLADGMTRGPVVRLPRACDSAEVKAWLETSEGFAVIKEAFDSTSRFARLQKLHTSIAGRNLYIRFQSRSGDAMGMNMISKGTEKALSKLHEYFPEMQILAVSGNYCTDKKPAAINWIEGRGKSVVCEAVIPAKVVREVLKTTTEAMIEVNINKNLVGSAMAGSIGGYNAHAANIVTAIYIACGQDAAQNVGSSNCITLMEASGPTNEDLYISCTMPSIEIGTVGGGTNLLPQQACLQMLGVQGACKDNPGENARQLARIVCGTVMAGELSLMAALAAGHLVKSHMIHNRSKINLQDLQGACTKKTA
# Experimental: HMG-CoA Reductase Inhibition
# A 0.1 M phosphate buffer containing 100 μM […], 330 μM NADPH, 2% DMSO and 1 mg/mL BSA was firstly prepared. Compounds 1 and 4˜11 were added dissolved in phosphate buffer at various concentrations, then added HMG-CoA reductase (the final concentration is 17.4 nM) and mixed for 5 minutes. The absorbance of the solution was measured at 340 nm. The IC50 values were analyzed via nonlinear least-squares using Sigma 10 to determine the HMG-CoA reductase inhibition of compounds.
# zebrafish [5] = test: Bone-targeting of test compounds in zebrafish; format: in vivo; details: living zebrafish, 3.2 μM, fluorescence microscope, FIG. 9(a), 9(b)
# Experimental: Calcein, which is a known staining dye for the mineral in animals, was used as a positive control group.
# The AB strain of wild-type zebrafish was used for this study. Embryos were collected after natural spawning, staged according to standard criteria, and raised synchronously at 28.5° C. in Hank's buffer (13.7 mM NaCl, 540 M KCl, 25 μM Na2HPO4, 44 μM KH2PO4, 300 μM CaCl2, 100 μM MgSO4, 420 μM NaHCO3, pH 7.4). Zebrafish larvae at 2 dpf were exposed to test compounds (3.2 μM) for 3 days in a 24-well plate. At 7 dpf, the fish were anesthetized using tricaine-methanesulfonate (MS 222) and mounted on depression glass slides with methyl-cellulose (3%), and the images of the zebrafish were acquired using a Leica DM-6000 CS fluorescence microscope (Leica Instruments Inc., Wetzlar, Germany). All of the images were acquired using a SPOT Xplorer Digital camera (Diagnostic Instruments, Inc., Sterling Heights, Mich., USA). Each image was taken at 60-sec.
# D1 cells [6] = format: cell-based
# Experimental: (§1) The D1 cells, purchased from American Type Culture Collection, were plated in 48-well plates at a density of 3×10^4 cells/well. Once confluence was obtained, the cells were cultured in bone medium (BM, prepared with DMEM, 10% FBS, 100 U/mL penicillin, 100 μg/mL streptomycin, […] ascorbic acid, 1% NEAA, 1.5 g sodium bicarbonate) in the presence of compound 1. After 3 days, BM was replaced with an osteogenesis induction medium (OIM prepared with BM, 10^−2 M β-glycerophosphate and 10^−7 M dexamethasone). […] The medium was changed every 2 days. For the quantitative value of mineralization, the cells were washed with PBS triplex and fixed with 10% formalin for 30 minutes at room temperature. Thereafter, the cells were washed with deionized water triplex, and then stained with Alizarin Red S solution ([…], 80 mM, pH 4) for 10 minutes at room temperature. The cells were washed with deionized water triplex and dried overnight at room temperature. The Alizarin Red S was released from the cell matrix by being mixed with 10% acetic acid(aq) for 30 minutes. The concentration of Alizarin Red S was determined by measuring the absorbance at 415 nm.
# The abilities of compounds 4˜11 to induce cell mineralization were evaluated followed the same method above, only remove dexamethasone from the recipe of osteogenesis induction medium.
# [7] = Combination with HAP monitored by fluorescent microscope; format: physicochemical; details: FIG. 6
# Excerpt: If compound 1-F is combined with HAP, it can be monitored using a fluorescent microscope.
# D1 cells [8] = test: Induction of mineralization (Alizarin Red S), FIG. 7; format: cell-based, rat
# Experimental: Following the tests above, the ability of inducing mineralization of the compounds to D1 cells was tested.
# as §1
# Solubility comparison = format: physicochemical; details: compared with simvastatin
smiles,measurement,setting,value
"CCC(C)(C)C(=O)O[C@H]1C[C@@H](C)C=C2C=C[C@H](C)[C@H](CC[C@@H]3C[C@@H](O)CC(=O)O3)[C@H]21 [Simvastatin, (1S,3R,7S,8S,8aR)-8-{2-[(2R,4R)-4-hydroxy-6-oxotetrahydro-2H-pyran-2-yl]ethyl}-3,7-dimethyl-1,2,3,7,8,8a-hexahydronaphthalen-1-yl2,2-dimethylbutanoate, reference compound]",IC50,"[1]; Homo sapiens, 72 h",3.25 ± 0.31 µM
same,IC50,D1 cells [2],3.25 ± 0.31 µM
same,promotion of bone formation compared with the non-administration group (control),zebrafish [3],did not promote bone formation
same,bone growth of zebrafish,zebrafish [4],does not benefit in the bone growth of zebrafish
CCC(C)(C)C(=O)O[C@H]1C[C@@H](C)C=C2C=C[C@H](C)[C@H](CC[C@@H](O)C[C@@H](O)CC(=O)NCc3ccccn3)[C@H]21 [Compound 9],effective inhibitory concentration compared with simvastatin,HMG-CoA reductase,500 fold
same,IC50,HMG-CoA reductase,> 30 µM
same,IC50,D1 cells [2],97.3 ± 7.9 µM
"O=C(O)CN(CC(=O)O)Cc1cc2c(cc1O)Oc1cc(O)c(CN(CC(=O)O)CC(=O)O)cc1C21OC(=O)c2ccccc21 [Calcein, reference compound]",bone-targeting (fluorescence on the bones),zebrafish [5],fluorescent staining on the bone can be observed
"CCC(C)(C)C(=O)O[C@H]1C[C@@H](C)C=C2C=C[C@H](C)[C@H](CC[C@@H](O)C[C@@H](O)CC(=O)O)[C@H]21 [Compound 4, simvastatin acid, reference compound]",IC50,HMG-CoA reductase,0.263 ± 0.0834 µM
same,IC50,D1 cells [2],29.4 ± 1.02 µM
same,induction of cell mineralization,"D1 cells [6]; 4 μM, FIG. 8(c)",can only induce mineralization effectively under a concentration of 4 μM
CCC(C)(C)C(=O)O[C@H]1C[C@@H](C)C=C2C=C[C@H](C)[C@H](CC[C@@H](O)C[C@@H](O)CC(=O)NCCCO)[C@H]21 [Compound 6],IC50,HMG-CoA reductase,1.13 ± 0.0895 µM
same,IC50,D1 cells [2],161 ± 3.76 µM
same,induction of cell mineralization,"D1 cells [6]; 1 μM, Day 11, FIG. 8(b)",excellent ability to induce cell mineralization
CCC(C)(C)C(=O)O[C@H]1C[C@@H](C)C=C2C=C[C@H](C)[C@H](CC[C@@H](O)C[C@@H](O)CC(=O)NN)[C@H]21 [Compound 8],IC50,HMG-CoA reductase,0.95 ± 0.0801 µM
same,IC50,D1 cells [2],106 ± 3.3 µM
CCC(C)(C)C(=O)O[C@H]1C[C@@H](C)C=C2C=C[C@H](C)[C@H](CC[C@@H](O)C[C@@H](O)CC(=O)N[C@@H](CCCCNC(=O)[C@H](CC(=O)O)NC(=O)[C@H](CC(=O)O)NC(=O)[C@H](CC(=O)O)NC(=O)[C@H](CC(=O)O)NC(=O)[C@H](CC(=O)O)NC(=O)[C@H](CC(=O)O)NC(=O)[C@H](CCCCNC(=S)Nc3ccc4c(c3)C(=O)OC43c4ccc(O)cc4Oc4cc(O)ccc43)NC(=O)OCCOCCOCCOCCOCCOCCOCCOCCOCCOCCOCCOC)C(=O)NCC(=O)O)[C@H]21 [Compound 1-F],effective inhibitory concentration compared with simvastatin,HMG-CoA reductase,500 fold
same,combination with HAP,[7],combines on the surface of HAP
same,IC50 compared with simvastatin,"[1]; cytotoxicity, hADSC",300 fold
same,induction of mineralization,D1 cells [8]; 15 μM,can induce mineralization of D1 cells
same,induction of mineralization,D1 cells [8]; over 20 μM,can induce mineralization of D1 cells
same,bone-targeting (fluorescence on the bones),zebrafish [5],targets the bones successfully
same,promotion of bone formation compared with the non-administration group (control),zebrafish [3],up to 50%
CCCNC(=O)C[C@H](O)C[C@H](O)CC[C@@H]1[C@@H]2C(=C[C@H](C)C[C@@H]2OC(=O)C(C)(C)CC)C=C[C@@H]1C [Compound 11],IC50,HMG-CoA reductase,21.6 µM
same,IC50,D1 cells [2],94.1 ± 10.6 µM
C=CCNC(=O)C[C@H](O)C[C@H](O)CC[C@@H]1[C@@H]2C(=C[C@H](C)C[C@@H]2OC(=O)C(C)(C)CC)C=C[C@@H]1C [Compound 10],IC50,HMG-CoA reductase,26.6 µM
same,IC50,D1 cells [2],92.2 ± 2.1 µM
CCC(C)(C)C(=O)O[C@H]1C[C@@H](C)C=C2C=C[C@H](C)[C@H](CC[C@@H](O)C[C@@H](O)CC(=O)NCCO)[C@H]21 [Compound 5],IC50,HMG-CoA reductase,1.02 ± 0.0509 µM
same,IC50,D1 cells [2],117 ± 8.07 µM
same,induction of cell mineralization,"D1 cells [6]; 1 μM, Day 9, FIG. 8(a)",clearly induced cell mineralization
same,induction of cell mineralization,"D1 cells [6]; 1 μM, Day 11, FIG. 8(b)",excellent ability to induce cell mineralization
CCC(C)(C)C(=O)O[C@H]1C[C@@H](C)C=C2C=C[C@H](C)[C@H](CC[C@@H](O)C[C@@H](O)CC(=O)NCCOCCO)[C@H]21 [Compound 7],IC50,HMG-CoA reductase,0.171 ± 0.0092 µM
same,IC50 compared with simvastatin,D1 cells [2],83 fold
same,IC50,D1 cells [2],269.1 ± 1.04 µM
same,induction of cell mineralization,"D1 cells [6]; 1 μM, Day 9, FIG. 8(a)",clearly induced cell mineralization
same,induction of cell mineralization,"D1 cells [6]; 1 μM, Day 11, FIG. 8(b)",excellent ability to induce cell mineralization
same,induction of cell mineralization,"D1 cells [6]; 4 μM, FIG. 8(c)",obvious ability to induce cell mineralization
same,solubility,Solubility comparison,higher than simvastatin
